# From PubChem BioAssay (NCI)
#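 Step 1: Grow cells in 96-well plates. Step 2: Expose to compound for 48 hours at 5 concentrations. Step 3: Interpolate endpoints linearly; if unreached, use highest concentration. GI50 is the concentration that inhibits growth by half. TGI is the concentration that stops growth completely.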
# Key:
# Assay in all cases: NCI-60 cell line screen, 48 h
# A549 NSCLC = system: A549 NSCLC
# BT-549 breast = system: BT-549 breast
# MOLT-4 leukemia = system: MOLT-4 leukemia
# HOP-92 NSCLC = system: HOP-92 NSCLC
# OVCAR-8 ovarian = system: OVCAR-8 ovarian
# KM12 colon = system: KM12 colon
# TK-10 renal = system: TK-10 renal
# UO-31 renal = system: UO-31 renal
# EKVX NSCLC = system: EKVX NSCLC
# SNB-19 CNS = system: SNB-19 CNS
# 786-0 renal = system: 786-0 renal
# MDA-MB-231 breast = system: MDA-MB-231 breast
# HOP-62 NSCLC = system: HOP-62 NSCLC
# SF-539 CNS = system: SF-539 CNS
# HL-60(TB) leukemia = system: HL-60(TB) leukemia
# RXF 393 renal = system: RXF 393 renal
# U251 CNS = system: U251 CNS
# HCT-116 colon = system: HCT-116 colon
# OVCAR-5 ovarian = system: OVCAR-5 ovarian
# ACHN renal = system: ACHN renal
# SW-620 colon = system: SW-620 colon
# LOX IMVI melanoma = system: LOX IMVI melanoma
# M14 melanoma = system: M14 melanoma
# SK-MEL-28 melanoma = system: SK-MEL-28 melanoma
# SNB-75 CNS = system: SNB-75 CNS
# T-47D breast = system: T-47D breast
# SF-268 CNS = system: SF-268 CNS
# NCI-H226 lung = system: NCI-H226 lung
# HCC-2998 colon = system: HCC-2998 colon
# OVCAR-4 ovarian = system: OVCAR-4 ovarian
# HS 578T breast = system: HS 578T breast
# CCRF-CEM leukemia = system: CCRF-CEM leukemia
# HT29 colon = system: HT29 colon
# PC-3 prostate = system: PC-3 prostate
# SK-MEL-5 melanoma = system: SK-MEL-5 melanoma
# MDA-MB-435 = system: MDA-MB-435
# UACC-257 melanoma = system: UACC-257 melanoma
# SF-295 CNS = system: SF-295 CNS
# OVCAR-3 ovarian = system: OVCAR-3 ovarian
# RPMI-8226 leukemia = system: RPMI-8226 leukemia
# NCI-H522 lung = system: NCI-H522 lung
# HCT-15 colon = system: HCT-15 colon
# NCI-H23 lung = system: NCI-H23 lung
# COLO 205 colon = system: COLO 205 colon
# MALME-3M melanoma = system: MALME-3M melanoma
# NCI-H460 lung = system: NCI-H460 lung
# UACC-62 melanoma = system: UACC-62 melanoma
# SN12C renal = system: SN12C renal
# DU-145 prostate = system: DU-145 prostate
# SR leukemia = system: SR leukemia
# IGROV1 ovarian = system: IGROV1 ovarian
# K-562 leukemia = system: K-562 leukemia
# MCF7 breast = system: MCF7 breast
# CAKI-1 renal = system: CAKI-1 renal
# SK-MEL-2 melanoma = system: SK-MEL-2 melanoma
# A498 renal = system: A498 renal
# SK-OV-3 ovarian = system: SK-OV-3 ovarian
structure (smiles),measurement,setting,value
O=c1ccc(N=Nc2ccccc2)ccc1Cl,GI50,A549 NSCLC,17 µM
same,TGI,A549 NSCLC,38.7 µM
same,GI50,BT-549 breast,3.22 µM
same,TGI,BT-549 breast,9.77 µM
same,GI50,MOLT-4 leukemia,0.749 µM
same,TGI,MOLT-4 leukemia,> 100 µM
same,GI50,HOP-92 NSCLC,13.9 µM
same,TGI,HOP-92 NSCLC,28.1 µM
same,GI50,OVCAR-8 ovarian,3.49 µM
same,TGI,OVCAR-8 ovarian,13.1 µM
same,GI50,KM12 colon,12.7 µM
same,TGI,KM12 colon,32.4 µM
same,GI50,TK-10 renal,13.7 µM
same,TGI,TK-10 renal,26.6 µM
same,GI50,UO-31 renal,7.39 µM
same,TGI,UO-31 renal,20.7 µM
same,GI50,EKVX NSCLC,11.5 µM
same,TGI,EKVX NSCLC,29.1 µM
same,GI50,SNB-19 CNS,26.2 µM
same,TGI,SNB-19 CNS,91.4 µM
same,GI50,786-0 renal,3.83 µM
same,TGI,786-0 renal,13.6 µM
same,GI50,MDA-MB-231 breast,9.01 µM
same,TGI,MDA-MB-231 breast,21.2 µM
same,GI50,HOP-62 NSCLC,31.3 µM
same,TGI,HOP-62 NSCLC,> 100 µM
same,GI50,SF-539 CNS,5.9 µM
same,TGI,SF-539 CNS,18.3 µM
same,GI50,HL-60(TB) leukemia,18.1 µM
same,TGI,HL-60(TB) leukemia,87.1 µM
same,GI50,RXF 393 renal,8.19 µM
same,TGI,RXF 393 renal,22.1 µM
same,GI50,U251 CNS,2.78 µM
same,TGI,U251 CNS,9.29 µM
same,GI50,HCT-116 colon,2.61 µM
same,TGI,HCT-116 colon,9.49 µM
same,GI50,OVCAR-5 ovarian,15.4 µM
same,TGI,OVCAR-5 ovarian,29.3 µM
same,GI50,ACHN renal,3.11 µM
same,TGI,ACHN renal,10.2 µM
same,GI50,SW-620 colon,3.14 µM
same,TGI,SW-620 colon,12.8 µM
same,GI50,LOX IMVI melanoma,2.24 µM
same,TGI,LOX IMVI melanoma,6.74 µM
same,GI50,M14 melanoma,2.63 µM
same,TGI,M14 melanoma,12.7 µM
same,GI50,SK-MEL-28 melanoma,14.5 µM
same,TGI,SK-MEL-28 melanoma,27.9 µM
same,GI50,SNB-75 CNS,15.9 µM
same,TGI,SNB-75 CNS,92.3 µM
same,GI50,T-47D breast,3.14 µM
same,TGI,T-47D breast,26.4 µM
same,GI50,SF-268 CNS,18.8 µM
same,TGI,SF-268 CNS,43.5 µM
same,GI50,NCI-H226 lung,19.6 µM
same,TGI,NCI-H226 lung,66.1 µM
same,GI50,HCC-2998 colon,12.2 µM
same,TGI,HCC-2998 colon,26.4 µM
same,GI50,OVCAR-4 ovarian,12.8 µM
same,TGI,OVCAR-4 ovarian,25.9 µM
same,GI50,HS 578T breast,21.4 µM
same,TGI,HS 578T breast,62.7 µM
same,GI50,CCRF-CEM leukemia,1.39 µM
same,TGI,CCRF-CEM leukemia,26.7 µM
same,GI50,HT29 colon,5.62 µM
same,TGI,HT29 colon,19.2 µM
same,GI50,PC-3 prostate,5.16 µM
same,TGI,PC-3 prostate,18.7 µM
same,GI50,SK-MEL-5 melanoma,15.7 µM
same,TGI,SK-MEL-5 melanoma,31.7 µM
same,GI50,MDA-MB-435,14.8 µM
same,TGI,MDA-MB-435,29.6 µM
same,GI50,UACC-257 melanoma,11.5 µM
same,TGI,UACC-257 melanoma,24 µM
same,GI50,SF-295 CNS,18.1 µM
same,TGI,SF-295 CNS,46.6 µM
same,GI50,OVCAR-3 ovarian,4.39 µM
same,TGI,OVCAR-3 ovarian,15.6 µM
same,GI50,RPMI-8226 leukemia,3.76 µM
same,TGI,RPMI-8226 leukemia,27.4 µM
same,GI50,NCI-H522 lung,1.8 µM
same,TGI,NCI-H522 lung,3.67 µM
same,GI50,HCT-15 colon,2.53 µM
same,TGI,HCT-15 colon,8.07 µM
same,GI50,NCI-H23 lung,6.25 µM
same,TGI,NCI-H23 lung,21.9 µM
same,GI50,COLO 205 colon,5.07 µM
same,TGI,COLO 205 colon,18.4 µM
same,GI50,MALME-3M melanoma,3.57 µM
same,TGI,MALME-3M melanoma,12.4 µM
same,GI50,NCI-H460 lung,15.4 µM
same,TGI,NCI-H460 lung,37.7 µM
same,GI50,UACC-62 melanoma,12.7 µM
same,TGI,UACC-62 melanoma,25.6 µM
same,GI50,SN12C renal,12.9 µM
same,TGI,SN12C renal,25.7 µM
same,GI50,DU-145 prostate,15.5 µM
same,TGI,DU-145 prostate,29 µM
same,GI50,SR leukemia,1.73 µM
same,TGI,SR leukemia,> 100 µM
same,GI50,IGROV1 ovarian,13.8 µM
same,TGI,IGROV1 ovarian,27.4 µM
same,GI50,K-562 leukemia,1 µM
same,TGI,K-562 leukemia,> 100 µM
same,GI50,MCF7 breast,3.16 µM
same,TGI,MCF7 breast,18 µM
same,GI50,CAKI-1 renal,13 µM
same,TGI,CAKI-1 renal,25.8 µM
same,GI50,SK-MEL-2 melanoma,13.9 µM
same,TGI,SK-MEL-2 melanoma,29.8 µM
same,GI50,A498 renal,> 100 µM
same,TGI,A498 renal,> 100 µM
same,GI50,SK-OV-3 ovarian,48 µM
same,TGI,SK-OV-3 ovarian,> 100 µM
